SMILES	melting point [°C]
CCOCc1nc2c(N)nc3cc(-c4ccncc4)ccc3c2n1CC(C)(C)O [Example 127, 1-[4-Amino-2-ethoxymethyl-7-(pyridin-4-yl)-1H-imidazo[4,5-c]quinolin-1-yl]-2-methylpropan-2-ol]	220 to 221
CCOCc1nc2c(N)nc3cc(-c4cn[nH]c4)ccc3c2n1CC(C)(C)O [Example 128, 1-[4-Amino-2-ethoxymethyl-7-(1H-pyrazol-4-yl)-1H-imidazo[4,5-c]quinolin-1-yl]-2-methylpropan-2-ol]	> 250
CCOCc1nc2c(N)nc3cc(-c4cccc(C(=O)N5CCCC5)c4)ccc3c2n1CC(C)(C)O [Example 129, {3-[4-Amino-2-ethoxymethyl-1-(2-hydroxy-2-methylpropyl)-1H-imidazo[4,5-c]quinolin-7-yl]phenyl}pyrrolidin-1-ylmethanone]	216.5 to 217.5
CCOCc1nc2c(N)nc3cc(-c4cccc(C(=O)N5CCOCC5)c4)ccc3c2n1CC(C)(C)O [Example 130, {3-[4-Amino-2-ethoxymethyl-1-(2-hydroxy-2-methylpropyl)-1H-imidazo[4,5-c]quinolin-7-yl]phenyl}morpholin-4-ylmethanone]	152 to 154
CCOCc1nc2c(N)nc3cc(-c4ccccc4)ccc3c2n1CC(C)(C)O [Example 131, 1-(4-Amino-2-ethoxymethyl-7-phenyl-1H-imidazo[4,5-c]quinolin-1-yl)-2-methylpropan-2-ol]	211 to 212
CCOCc1nc2c(N)nc3cc(-c4cccc(C(=O)O)c4)ccc3c2n1CC(C)(C)O [Example 135, 3-[4-Amino-2-ethoxymethyl-1-(2-hydroxy-2-methylpropyl)-1H-imidazo[4,5-c]quinolin-7-yl]benzoic acid]	> 250
CCc1nc2c(N)nc3cc(-c4ccncc4)ccc3c2n1CC(C)(C)O [Example 143, 1-[4-Amino-2-ethyl-7-(pyridin-4-yl)-1H-imidazo[4,5-c]quinolin-1-yl]-2-methylpropan-2-ol]	> 250
CCOCc1nc2c(N)nc3ccc(C=Cc4ccccc4)cc3c2n1CC(C)(C)O [Example 147, 1-(4-Amino-2-ethoxymethyl-8-styryl-1H-imidazo[4,5-c]quinolin-1-yl)-2-methylpropan-2-ol]	217 to 218
CCOCc1nc2c(N)nc3ccc(-c4cccnc4)cc3c2n1CC(C)(C)O [Example 148, 1-[4-Amino-2-ethoxymethyl-8-(pyridin-3-yl)-1H-imidazo[4,5-c]quinolin-1-yl]-2-methylpropan-2-ol]	222 to 223
CCOCc1nc2c(N)nc3ccc(CCc4ccccc4)cc3c2n1CC(C)(C)O [Example 151, 1-(4-Amino-2-ethoxymethyl-8-phenethyl-1H-imidazo[4,5-c]quinolin-1-yl)-2-methylpropan-2-ol]	175 to 176
CCOCc1nc2c(N)nc3cc(-c4ccccc4)ccc3c2n1CCCCN1CCCS1(=O)=O [Example 152, 1-[4-(1,1-Dioxidoisothiazolidin-2-yl)butyl]-2-ethoxymethyl-7-phenyl-1H-imidazo[4,5-c]quinolin-4-amine]	167 to 168.5
CCOCc1nc2c(N)nc3cc(-c4cccnc4)ccc3c2n1CCCCN1CCCS1(=O)=O [Example 153, 1-[4-(1,1-Dioxidoisothiazolidin-2-yl)-butyl]-2-ethoxymethyl-7-(pyridin-3-yl)-1H-imidazo[4,5-c]quinolin-4-amine]	171 to 173
CCOCc1nc2c(N)nc3cc(-c4ccncc4)ccc3c2n1CCCCN1CCCS1(=O)=O [Example 154, 1-[4-(1,1-Dioxidoisothiazolidin-2-yl)-butyl]-2-ethoxymethyl-7-(pyridin-4-yl)-1H-imidazo[4,5-c]quinolin-4-amine]	186 to 187.5
CCOCc1nc2c(N)nc3cc(-c4cccc(CO)c4)ccc3c2n1CCCCN1CCCS1(=O)=O [Example 156, (5-{4-Amino-1-[4-(1,1-dioxidoisothiazolidin-2-yl)butyl]-2-ethoxymethyl-1H-imidazo[4,5-c]quinolin-7-yl}phenyl)methanol]	158 to 161
CCOCc1nc2c(N)nc3cc(-c4cccnc4)ccc3c2n1CCCCNC(=O)OC(C)(C)C [Example 157, tert-Butyl {4-[4-amino-2-ethoxymethyl-7-(pyridin-3-yl)-1H-imidazo[4,5-c]quinolin-1-yl]butyl}carbamate]	117 to 119
CCCc1nc2c(N)nc3cc(-c4cccnc4)ccc3c2n1CCCCNC(=O)OC(C)(C)C [Example 158, tert-Butyl {4-[4-amino-2-propyl-7-(pyridin-3-yl)-1H-imidazo[4,5-c]quinolin-1-yl]butyl}carbamate]	136 to 138
CCOCc1nc2c(N)nc3cc(-c4cccnc4)ccc3c2n1CC1COC(C)(C)O1 (stereo not drawn) [Example 159, 1-[(2,2-Dimethyl-1,3-dioxolan-4-yl)methyl]-2-ethoxymethyl-7-(pyridin-3-yl)-1H-imidazo[4,5-c]quinolin-4-amine]	181 to 182
CCOCc1nc2c(N)nc3cc(-c4ccc(CO)cc4)ccc3c2n1CC1COC(C)(C)O1 (stereo not drawn) [Example 160, 1-[(2,2-Dimethyl-1,3-dioxolan-4-yl)methyl]-2-ethoxymethyl-7-(4-hydroxymethylphenyl)-1H-imidazo[4,5-c]quinolin-4-amine]	219 to 220
CCOCc1nc2c(N)nc3cc(-c4ccccc4)ccc3c2n1CC1COC(C)(C)O1 (stereo not drawn) [Example 161, 1-[(2,2-Dimethyl-1,3-dioxolan-4-yl)methyl]-2-ethoxymethyl-7-phenyl-1H-imidazo[4,5-c]quinolin-4-amine]	168 to 170

Next, values leading:

melting point [°C]	SMILES
188 to 190	CCOCc1nc2c(N)nc3cc(-c4cncc(CO)c4)ccc3c2n1CC(C)(C)O [Example 133, 1-[4-Amino-2-ethoxymethyl-7-(5-hydroxymethylpyridin-3-yl)-1H-imidazo[4,5-c]quinolin-1-yl]-2-methylpropan-2-ol]
156 to 156.5	CCOCc1cncc(-c2ccc3c(c2)nc(N)c2nc(COCC)n(CC(C)(C)O)c23)c1 [Example 134, 1-[4-Amino-2-ethoxymethyl-7-(5-ethoxymethylpyridin-3-yl)-1H-imidazo[4,5-c]quinolin-1-yl]-2-methylpropan-2-ol]
226 to 227	COCCc1nc2c(N)nc3cc(-c4ccccc4)ccc3c2n1CC(C)(C)O [Example 136, 1-[4-Amino-2-(2-methoxyethyl)-7-phenyl-1H-imidazo[4,5-c]quinolin-1-yl]-2-methylpropan-2-ol]
233 to 234	COCCc1nc2c(N)nc3cc(-c4ccsc4)ccc3c2n1CC(C)(C)O [Example 137, 1-[4-Amino-2-(2-methoxyethyl)-7-(thiophen-3-yl)-1H-imidazo[4,5-c]quinolin-1-yl]-2-methylpropan-2-ol]
158 to 160	COCCc1nc2c(N)nc3cc(-c4cccnc4)ccc3c2n1CC(C)(C)O [Example 138, 1-[4-Amino-2-(2-methoxyethyl)-7-(pyridin-3-yl)-1H-imidazo[4,5-c]quinolin-1-yl]-2-methylpropan-2-ol]
212 to 213	COCCc1nc2c(N)nc3cc(-c4cccc(CO)c4)ccc3c2n1CC(C)(C)O [Example 140, 1-[4-Amino-7-(3-hydroxymethylphenyl)-2-(2-methoxyethyl)-1H-imidazo[4,5-c]quinolin-1-yl]-2-methylpropan-2-ol]
210 to 211	COCCc1nc2c(N)nc3cc(-c4cncc(CO)c4)ccc3c2n1CC(C)(C)O [Example 141, 1-[4-Amino-7-(5-hydroxymethylpyridin-3-yl)-2-(2-methoxyethyl)-1H-imidazo[4,5-c]quinolin-1-yl]-2-methylpropan-2-ol]
245 to 247	CCc1nc2c(N)nc3cc(-c4cccnc4)ccc3c2n1CC(C)(C)O [Example 142, 1-[4-Amino-2-ethyl-7-(pyridin-3-yl)-1H-imidazo[4,5-c]quinolin-1-yl]-2-methylpropan-2-ol]
207 to 208	COCCc1nc2c(N)nc3cc(-c4cccnc4)ccc3c2n1CC(C)C [Example 145, 2-(2-Methoxyethyl)-1-(2-methylpropyl)-7-(pyridin-3-yl)-1H-imidazo[4,5-c]quinolin-4-amine]
202 to 204	COCCc1nc2c(N)nc3cc(-c4cncc(CO)c4)ccc3c2n1CC(C)C [Example 146, {5-[4-Amino-2-(2-methoxyethyl)-1-(2-methylpropyl)-1H-imidazo[4,5-c]quinolin-7-yl]pyridin-3-yl}methanol]
230 to 232	CCOCc1nc2c(N)nc3ccc(-c4cncc(CO)c4)cc3c2n1CC(C)(C)O [Example 150, 1-[4-Amino-2-ethoxymethyl-8-(5-hydroxymethylpyridin-3-yl)-1H-imidazo[4,5-c]quinolin-1-yl]-2-methylpropan-2-ol]
184.5 to 186	CCOCc1nc2c(N)nc3cc(-c4cncc(CO)c4)ccc3c2n1CCCCN1CCCS1(=O)=O [Example 155, (5-{4-Amino-1-[4-(1,1-dioxidoisothiazolidin-2-yl)butyl]-2-ethoxymethyl-1H-imidazo[4,5-c]quinolin-7-yl}pyridin-3-yl)methanol]
218 to 220	CCOCc1nc2c(N)nc3cc(-c4cccnc4)ccc3c2n1CC(O)CO (stereo not drawn) [Example 162, 3-[4-Amino-2-ethoxymethyl-7-(pyridin-3-yl)-1H-imidazo[4,5-c]quinolin-1-yl]propane-1,2-diol]
146 to 147	CCOCc1nc2c(N)nc3cc(-c4ccccc4)ccc3c2n1CCCOC [Example 163, 2-Ethoxymethyl-1-(3-methoxypropyl)-7-phenyl-1H-imidazo[4,5-c]quinolin-4-amine]
151 to 152	CCOCc1nc2c(N)nc3cc(-c4cccnc4)ccc3c2n1CCCOC [Example 164, 2-Ethoxymethyl-1-(3-methoxypropyl)-7-(pyridin-3-yl)-1H-imidazo[4,5-c]quinolin-4-amine]
225 to 226	CCOCc1nc2c(N)nc3cc(-c4ccncc4)ccc3c2n1CCCOC [Example 165, 2-Ethoxymethyl-1-(3-methoxypropyl)-7-(pyridin-4-yl)-1H-imidazo[4,5-c]quinolin-4-amine]
228 to 229	CCOCc1nc2c(N)nc3cc(-c4ccc(CO)cc4)ccc3c2n1CCCOC [Example 166, 2-Ethoxymethyl-1-(3-methoxypropyl)-7-(4-hydroxymethylphenyl)-1H-imidazo[4,5-c]quinolin-4-amine]

From patent publication US7598382B2, “Aryl substituted imidazoquinolines” (Coley Pharmaceutical Group, Inc., priority 2002, dated 2009)
